Our source for the RP-LC retention time values is the METLIN SMRT retention time set (Domingo-Almenara et al. 2019).

The data set in a line: gradient 5% acetonitrile 3 min, to 50% in 2 min, to 85% in 15 min, held 3 min, 100 µL/min. Conditions: column: Zorbax Extend-C18 2.1 x 50 mm; eluents: water / acetonitrile, 0.1% formic acid. The method, boiled down: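 Data were gathered over 3 months by HPLC coupled to a quadrupole time-of-flight mass spectrometer, operated in positive and negative ionization mode. Mixtures of ~100 pure standards ran on a Zorbax Extend-C18 column (2.1 × 50 mm, 1.8 μm) at 100 μL/min, with water and acetonitrile each containing 0.1% formic acid and dead and dwell volumes of 40 μL and 900 μL. Retention time was read from adduct peaks picked by computer and checked manually.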
Regarding `COc1ccc(N2CC(c3noc(-c4cccc(Cl)c4)n3)CC2=O)cc1` (stereo not given), the RP-LC retention time amounted to 1030 s.

In turn, `O=C(O)C1(c2cc(-c3ccccc3)on2)CC1` yielded an RP-LC retention time of 736 s.

`CCCNC(=O)CCNc1c(-c2ccc(F)cc2)nc2cnccn12` returned an RP-LC retention time of 648 s. Under `COc1ccccc1CCNC(=O)CSc1nc(=O)n(Cc2ccco2)c2c1CCC2` stands 739 s; under `O=C(CCc1ccc2cc[nH]c2c1)NCc1cc(F)cc(F)c1`, 848 s. The value for `CCn1c(=O)oc2cc(-c3noc(CNC(=O)c4ccccc4)n3)ccc21` was 801 s. Take `O=C(Nc1cc(C(F)(F)F)ccc1Cl)c1cccc(Oc2ncccn2)c1`: the RP-LC retention time was determined as 900 s. Under `C#CCOCC1CCCN(S(=O)(=O)c2cc(C)c(Cl)cc2Cl)C1` (stereo not given) stands 1130 s; under `O=C([C@@H]1C[C@H](F)CN1S(=O)(=O)c1ccccc1F)N1CCCCC1`, 743 s. The value for `CCC(=O)N1CCCn2nc(-c3cccc(F)c3)cc2C1` was 735 s; that for `COc1cccc(S(=O)(=O)N2CCC(c3nc(C(=O)N4CCOCC4)c(C)o3)CC2)c1` was 794 s. The compound `Cc1nnc(-c2cc(C)n(CC(=O)Nc3cccc(C)c3C)c2C)o1` registered an RP-LC retention time of 767 s.

Consider `c1ccc(CNc2c(-c3ccccc3)nc3ncccn23)cc1`, for which the RP-LC retention time is 709 s. The value for `C[C@H]1CN(C(=O)Nc2ccc(Cl)cc2)C[C@@H]1c1nc(-c2cccnc2)no1` was 863 s; that for `CCn1cc(-c2nc(C)c(C(=O)NCc3cccc(C)c3)s2)c2cccnc21` was 989 s; that for `Cc1ccc(C2(O)C(=O)N(CC(=O)Nc3ccccc3F)c3ccccc32)cc1` (stereo not given) was 664 s. The value for `Cc1cc(NC(=O)Nc2ccc3nc(N4CCN(C)CC4)cc(C)c3c2)ccc1Br` was 642 s.

Compound `Cc1ccc(CNC(=O)Cn2c(N3CCCCC3)nc(C)cc2=O)cc1` displayed an RP-LC retention time of 661 s. Under `O=C(NCc1cccc2ccccc12)NCC1CCN(C(=O)COc2ccccc2)CC1` stands 770 s; under `CCC(=O)OCCN1C(=O)c2cccc3c(N4CCCCC4)ccc(c23)C1=O`, 1170 s.

Compound `O=C(Cc1cn(Cc2ccc(F)cc2)c2ccccc12)N1CCN(C(=O)c2ccco2)CC1` returned an RP-LC retention time of 803 s. Turning to `O=C(c1cc(-c2ccncc2)n[nH]1)N1CCN(C(=O)c2ccc(Br)o2)CC1`, the RP-LC retention time was determined as 590 s. Under `COCCN1C(=O)[C@H]2CN(C(=O)Nc3ccccc3)C[C@H]2C1=O` stands 732 s. Under `COc1ccc(Cl)cc1NC(=O)N1CCN(CCn2cnc3cccnc32)CC1` stands 625 s; under `O=C1NC2(CCN(C(=O)Nc3ccccc3Cl)CC2)N=C1c1ccccc1`, 800 s; under `O=C(Nc1cnc(N2CCOCC2)nc1)c1cc(F)cc(F)c1`, 789 s.

With `O=C(Cc1noc2ccccc12)Nc1cccc2nsnc12`, the RP-LC retention time was 814 s. As to `CNC(=O)c1nn(-c2ccc(F)c(F)c2)c(OC)cc1=O`, the RP-LC retention time was 651 s. Under `Cc1ccc2c(=O)c(C(=O)N3CCOCC3)cn(CC(=O)NC3CCCCC3)c2n1` stands 653 s; under `COc1ccc(-c2noc(-c3nc(-c4ccccn4)no3)n2)cc1`, 966 s. The value for `COc1ccc(C2(C(=O)Nc3cc(-c4nnc(C)o4)sc3C)CC2)cc1` was 989 s; that for `CNC(=O)C1CCCN(c2nc3ncn(CC(=O)NCc4ccccc4Cl)c(=O)c3s2)C1` (stereo not given) was 664 s; that for `CCc1ccc(C(C)NC(=O)c2ccc3[nH]cc(C(=O)C(=O)N4CCCCCC4)c3c2)cc1` (stereo not given) was 936 s. In the case of `Fc1ccc(-c2ccnc3nc(-c4ccccc4)nn23)cc1`, the RP-LC retention time is 949 s.

`COc1ccc(S(=O)(=O)N2CCC(c3cc4n(n3)CCCN(C)C4=O)CC2)cc1` registered an RP-LC retention time of 720 s. The value for `COCCCNC(=O)N1CCN(Cc2nc3cc(C(=O)N(C)C)ccc3n2C)CC1` was 560 s. In turn, `Cn1cccc1Cc1nnc(SCC(=O)NCC2CCCO2)n1Cc1ccccc1` (stereo not given) gave an RP-LC retention time of 741 s. Under `CCc1cc(=O)n(CC(=O)NCc2cccs2)c(-c2ccccc2)n1` stands 1040 s; under `Cc1ccc(NC(=O)Cn2c(C)nc3cc4c(cc32)OCCO4)cc1C`, 678 s; under `Cc1sc(NC(=O)c2ccccc2)c(CN(C)C)c1C`, 625 s.

The compound `CC1=C(c2ccc(C)cc2)S(=O)(=O)N=C1N1CCCN(C(=O)NC(C)(C)C)CC1` showed an RP-LC retention time of 836 s.

`Cc1sc2ccn(Cc3ccc(F)cc3)c(=O)c2c1C(=O)NCC1CC1`: the RP-LC retention time is 858 s. Under `COc1ccc(-c2[nH]ncc2CN2CC(F)(F)C[C@H]2CN2CCOCC2)cc1` stands 590 s; under `Cc1ccc(-c2cn3c(CC(=O)NCc4ccc5c(c4)OCO5)csc3n2)cc1C`, 794 s; under `CCN(CC)C(=O)c1ccc2c(c1)N(CC(=O)N1CCCC1)C(=O)C1CCCCN21` (stereo not given), 753 s. Under `Cc1ccc(Cn2c(=O)c(N3CCCC(C(=O)NCc4cccs4)C3)nc3ccccc32)cc1` (stereo not given) stands 1170 s; under `COC(=O)c1c(NCCN2CCC(C)CC2)c2cccc(Cl)c2[nH]c1=O`, 583 s. In the case of `COc1cccc(-n2c(N3CCC(C(=O)NC4CC4)CC3)nc3ccsc3c2=O)c1`, the RP-LC retention time was 682 s. Under `O=C(CN1CCN(C(=O)Nc2ccc(Cl)cc2)CC1=O)NC1CCCC1` stands 690 s.

`CCCCn1c(SCc2nc(-c3ccc(OCC)cc3)no2)nc2cc3c(cc2c1=O)OCO3`: the RP-LC retention time is 1390 s.

Compound `O=C(NCc1ccccc1F)C1CCCN(c2nnc3ccc(C(F)(F)F)cn23)C1` (stereo not given) yielded an RP-LC retention time of 781 s.

As to `CCN(CC)C(=O)c1ccc2c(c1)N(CC(=O)N1CCN(c3ccccn3)CC1)C(=O)CO2`, the RP-LC retention time came out at 574 s. The value for `O=C(NCc1ccc2c(c1)OCO2)C1CCCN(c2cnc3nccnc3c2)C1` (stereo not given) was 666 s; that for `CCn1c(=O)cc(SCC(=O)N2CCN(c3ccccn3)CC2)c2ccccc21` was 607 s; that for `CC(=O)Nc1ccc(SCc2c(F)cccc2Cl)nn1` was 787 s. On to `O=C(NC1CCCCC1N1C(=O)CSC1=O)c1ccc[nH]c1=O` (stereo not given), for which the RP-LC retention time worked out at 606 s.

The compound `Cc1ccc(NC(=O)N2CCC(n3cnc4cccnc43)CC2)cc1F` came in with an RP-LC retention time of 682 s. The value for `CCOc1ccc(S(=O)(=O)N2CCN(c3cnn4c(C)nnc4c3)CC2)cc1` was 714 s.

In turn, `CC(C)Cc1cc(-c2nn3c(-c4ccc(Cl)cc4)nnc3s2)n[nH]1` came in with an RP-LC retention time of 1100 s. In the case of `CCCCNC(=O)Cn1nc2c3cc(-c4ccc(F)cc4)nn3ccn2c1=O`, the RP-LC retention time was determined as 812 s. The value for `CCN1C(=O)c2c(C(=O)NCCc3ccc(C)cc3)ncn2CC1(C)C(=O)NC1CCCC1` (stereo not given) was 779 s. The value for `CC(C)n1cnc(S(=O)(=O)N2CCCC(C(=O)Nc3cccc(CN4CCCC4)c3)C2)c1` (stereo not given) was 627 s; that for `COc1ccccc1N1CCN(C(=S)Nc2ccc3nc(N4CCN(C)CC4)cc(C)c3c2)CC1` was 586 s; that for `Cc1ccc(Cn2c(=O)n(CCNC(=O)c3cccs3)c3ncccc32)cc1` was 808 s. The value for `Cc1cc(-c2nnc(-c3ccc(F)cc3)o2)c(C)n1CC(=O)Nc1cccc(F)c1` was 987 s; that for `O=C1CC(C(=O)N2CCc3ccccc3C2)CN1CCc1c[nH]c2ccc(Cl)cc12` (stereo not given) was 879 s; that for `CCc1nc2cc(N3CCC(C(=O)Nc4ccc(OC)cc4)CC3)cnc2nc1CC` was 827 s. With `CCOC(=O)Cn1nc(-n2ccnc2)ccc1=O`, the RP-LC retention time was found to be 503 s. Under `CN(C)CCCNC(=O)C1CCN(c2nc3ccc(-c4cccc(F)c4)nc3s2)CC1` stands 691 s; under `Cc1nc(Cn2cccc2C(=O)N2CCc3ccccc32)no1`, 885 s; under `Cc1ccc(CNC(=O)C2CCN(S(=O)(=O)c3cc(C(=O)N4CCOCC4)cs3)CC2)cc1`, 765 s.

The compound `COc1ccc(CNc2nc3ccncc3n(Cc3ccccc3)c2=O)cc1` returned an RP-LC retention time of 710 s. The value for `CCCN1C(=O)COc2ccc(-c3csc(NC(=O)c4cccc(Cl)c4)n3)cc21` was 1150 s. Under `COc1cccc(CN2CC[C@@H]3CN(S(C)(=O)=O)[C@@H]3C2)c1OC` stands 604 s; under `Cc1cc(C)cc(-c2nnc(Cc3nc(-c4ccc5c(c4)OCO5)no3)o2)c1`, 1070 s; under `CCc1cccc(NC(=O)N2CCc3nc[nH]c3C2)c1`, 606 s. The value for `Cc1ccc(NC(=O)N2CCCC(Cn3c(C4CC4)nc4cccnc43)C2)cc1` (stereo not given) was 685 s; that for `COCCn1c(CCCC(=O)NCc2ccc3c(c2)OCO3)nc2cccnc21` was 632 s.

In turn, `CCN1CCN(CC(=O)N2N=C(c3cccs3)CC2c2ccc(F)cc2)C(=O)C1=O` (stereo not given) displayed an RP-LC retention time of 703 s. Under `CCOc1ccc(-c2csc(Cc3nc(-c4ccc(OCC)cc4)no3)n2)cc1` stands 1300 s.
